Experimental data from patent US8519137B2, “Heteroaryl amides useful as inhibitors of voltage-gated sodium channels” (Vertex Pharmaceuticals Incorporated, priority 2007, dated 2013).
Read-outs that look alike come from different tables or passages of the source.

Tests used:
NaV 1.7 channel = NaV 1.7 channel (Homo sapiens, UniProt Q15858); experiment: Optical membrane potential assay, NaV 1.7 inhibition; assay type: cell-based; conditions: activity against NaV 1.7 channel
Protocol: (§1) Compounds of the invention are useful as antagonists of voltage-gated sodium ion channels. Antagonist properties of test compounds were assessed as follows. Cells expressing the NaV of interest were placed into microtiter plates. After an incubation period, the cells were stained with fluorescent dyes sensitive to the transmembrane potential. The test compounds were added to the microtiter plate. The cells were stimulated with either a chemical or electrical means to evoke a NaV dependent membrane potential change from unblocked channels, which was detected and measured with trans-membrane potential-sensitive dyes. Antagonists were detected as a decreased membrane potential response to the stimulus. The optical membrane potential assay utilized voltage-sensitive FRET sensors described by Gonzalez and Tsien (See, Gonzalez, J. E. and R. Y. Tsien (1995) “Voltage sensing by fluorescence resonance energy transfer in single cells” Biophys J 69(4): 1272-80, and Gonzalez, J. E. and R. Y. Tsien (1997) “Improved indicators of cell membrane potential that use fluorescence resonance energy transfer” Chem Biol 4(4): 269-77) in combination with instrumentation for measuring fluorescence changes such as the Voltage/Ion Probe Reader (VIPR®) (See, Gonzalez, J. E., K. Oades, et al. (1999) “Cell-based assays and instrumentation for screening ion-channel targets” Drug Discov Today 4(9): 431-439).
(§2) C) VIPR® Optical Membrane Potential Assay Method with Electrical Stimulation
(§3) The following is an example of how NaV1.3 inhibition activity is measured using the optical membrane potential method#2. Other subtypes are performed in an analogous mode in a cell line expressing the NaV of interest.
(§4) The electrical stimulation instrument and methods of use are described in ION Channel Assay Methods PCT/US01/21652, herein incorporated by reference. The instrument comprises a microtiter plate handler, an optical system for exciting the coumarin dye while simultaneously recording the coumarin and oxonol emissions, a waveform generator, a current-or voltage-controlled amplifier, and a device for inserting electrodes in well. Under integrated computer control, this instrument passes user-programmed electrical stimulus protocols to cells within the wells of the microtiter plate.
(§5) Assay Protocol • 1 Insert or use electrodes into each well to be assayed. • 2. Use the current-controlled amplifier to deliver stimulation wave pulses for 3 s. Two seconds of pre-stimulus recording are performed to obtain the un-stimulated intensities. Five seconds of post-stimulation recording are performed to examine the relaxation to the resting state.
(§6) Data are analyzed and reported as normalized ratios of background-subtracted emission intensities measured in the 460 nm and 580 nm channels. Background intensities are then subtracted from each assay channel. Background intensities are obtained by measuring the emission intensities during the same time periods from identically treated assay wells in which there are no cells. The response as a function of time is then reported as the ratios obtained using the following formula: […]
(§7) The data is further reduced by calculating the initial (Ri) and final (Rf) ratios. These are the average ratio values during part or all of the pre-stimulation period, and during sample points during the stimulation period. The response to the stimulus , ρ=Rf/Ri is then calculated.
(§8) Control responses are obtained by performing assays in the presence of a compound with the desired properties (positive control) and in the absence of pharmacological agents (negative control). Responses to the negative (N) and positive (P) controls are calculated as above. The activity A of the assay well relative to positive and negative controls is defined as: […]

NaV1.8 [1] = target: T1, NaV1.8 (Homo sapiens, UniProt Q9Y5Y9); conditions: read-out: TTX IC50; cited from earlier work
Target sequence in this assay (Q9Y5Y9 whole entry, looked up): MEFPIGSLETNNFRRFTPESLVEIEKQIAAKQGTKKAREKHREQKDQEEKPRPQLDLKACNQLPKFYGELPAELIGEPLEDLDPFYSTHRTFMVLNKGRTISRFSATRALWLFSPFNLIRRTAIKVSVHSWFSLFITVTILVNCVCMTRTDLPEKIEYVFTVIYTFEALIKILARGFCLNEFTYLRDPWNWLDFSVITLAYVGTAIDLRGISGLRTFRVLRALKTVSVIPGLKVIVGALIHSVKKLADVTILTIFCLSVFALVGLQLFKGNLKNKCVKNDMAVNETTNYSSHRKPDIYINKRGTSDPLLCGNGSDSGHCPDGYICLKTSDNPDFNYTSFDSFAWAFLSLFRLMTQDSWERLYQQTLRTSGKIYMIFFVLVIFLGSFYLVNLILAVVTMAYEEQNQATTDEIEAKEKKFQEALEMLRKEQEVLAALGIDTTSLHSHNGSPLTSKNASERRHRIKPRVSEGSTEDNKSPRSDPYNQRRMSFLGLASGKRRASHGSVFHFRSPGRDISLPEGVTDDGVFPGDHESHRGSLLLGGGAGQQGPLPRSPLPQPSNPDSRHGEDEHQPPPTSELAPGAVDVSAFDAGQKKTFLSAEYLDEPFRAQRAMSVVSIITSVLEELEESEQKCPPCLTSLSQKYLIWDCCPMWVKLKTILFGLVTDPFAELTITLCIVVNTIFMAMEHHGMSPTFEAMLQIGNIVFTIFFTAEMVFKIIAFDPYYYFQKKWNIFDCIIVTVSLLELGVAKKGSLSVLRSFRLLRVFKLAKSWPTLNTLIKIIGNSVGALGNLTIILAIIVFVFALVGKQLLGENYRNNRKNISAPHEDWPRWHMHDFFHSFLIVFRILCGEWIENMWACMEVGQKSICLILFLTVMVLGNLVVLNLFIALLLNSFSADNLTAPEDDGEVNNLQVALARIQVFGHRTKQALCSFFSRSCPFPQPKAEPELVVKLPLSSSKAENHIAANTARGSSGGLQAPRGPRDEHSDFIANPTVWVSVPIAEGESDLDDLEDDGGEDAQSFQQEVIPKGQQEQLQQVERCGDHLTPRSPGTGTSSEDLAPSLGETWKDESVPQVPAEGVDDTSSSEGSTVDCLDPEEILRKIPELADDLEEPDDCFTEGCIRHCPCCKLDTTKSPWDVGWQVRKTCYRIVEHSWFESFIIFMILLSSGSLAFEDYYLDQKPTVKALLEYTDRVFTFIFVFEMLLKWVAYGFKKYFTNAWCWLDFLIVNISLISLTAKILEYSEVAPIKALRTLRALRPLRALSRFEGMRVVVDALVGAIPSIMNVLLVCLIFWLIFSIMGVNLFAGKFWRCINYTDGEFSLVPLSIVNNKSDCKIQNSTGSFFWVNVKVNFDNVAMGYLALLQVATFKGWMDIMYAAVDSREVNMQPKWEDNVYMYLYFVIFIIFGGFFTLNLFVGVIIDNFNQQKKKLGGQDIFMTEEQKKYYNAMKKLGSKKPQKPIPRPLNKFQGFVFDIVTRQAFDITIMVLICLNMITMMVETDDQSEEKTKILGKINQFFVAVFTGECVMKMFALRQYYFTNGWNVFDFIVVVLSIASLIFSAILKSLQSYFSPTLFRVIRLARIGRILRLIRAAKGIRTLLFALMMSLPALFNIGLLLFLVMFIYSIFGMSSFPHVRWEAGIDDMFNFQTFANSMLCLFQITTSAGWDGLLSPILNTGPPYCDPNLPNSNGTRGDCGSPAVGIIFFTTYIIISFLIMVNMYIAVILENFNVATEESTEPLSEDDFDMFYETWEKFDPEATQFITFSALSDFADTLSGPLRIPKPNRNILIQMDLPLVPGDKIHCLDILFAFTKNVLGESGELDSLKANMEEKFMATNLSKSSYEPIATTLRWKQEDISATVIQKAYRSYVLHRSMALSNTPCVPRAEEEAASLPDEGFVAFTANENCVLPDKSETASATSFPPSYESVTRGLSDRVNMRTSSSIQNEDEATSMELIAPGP

NaV1.3 [2] = target: T2, NaV1.3 (Homo sapiens, UniProt Q9NY46); conditions: read-out: TTX IC50; cited from earlier work
Target sequence in this assay (Q9NY46 whole entry, looked up): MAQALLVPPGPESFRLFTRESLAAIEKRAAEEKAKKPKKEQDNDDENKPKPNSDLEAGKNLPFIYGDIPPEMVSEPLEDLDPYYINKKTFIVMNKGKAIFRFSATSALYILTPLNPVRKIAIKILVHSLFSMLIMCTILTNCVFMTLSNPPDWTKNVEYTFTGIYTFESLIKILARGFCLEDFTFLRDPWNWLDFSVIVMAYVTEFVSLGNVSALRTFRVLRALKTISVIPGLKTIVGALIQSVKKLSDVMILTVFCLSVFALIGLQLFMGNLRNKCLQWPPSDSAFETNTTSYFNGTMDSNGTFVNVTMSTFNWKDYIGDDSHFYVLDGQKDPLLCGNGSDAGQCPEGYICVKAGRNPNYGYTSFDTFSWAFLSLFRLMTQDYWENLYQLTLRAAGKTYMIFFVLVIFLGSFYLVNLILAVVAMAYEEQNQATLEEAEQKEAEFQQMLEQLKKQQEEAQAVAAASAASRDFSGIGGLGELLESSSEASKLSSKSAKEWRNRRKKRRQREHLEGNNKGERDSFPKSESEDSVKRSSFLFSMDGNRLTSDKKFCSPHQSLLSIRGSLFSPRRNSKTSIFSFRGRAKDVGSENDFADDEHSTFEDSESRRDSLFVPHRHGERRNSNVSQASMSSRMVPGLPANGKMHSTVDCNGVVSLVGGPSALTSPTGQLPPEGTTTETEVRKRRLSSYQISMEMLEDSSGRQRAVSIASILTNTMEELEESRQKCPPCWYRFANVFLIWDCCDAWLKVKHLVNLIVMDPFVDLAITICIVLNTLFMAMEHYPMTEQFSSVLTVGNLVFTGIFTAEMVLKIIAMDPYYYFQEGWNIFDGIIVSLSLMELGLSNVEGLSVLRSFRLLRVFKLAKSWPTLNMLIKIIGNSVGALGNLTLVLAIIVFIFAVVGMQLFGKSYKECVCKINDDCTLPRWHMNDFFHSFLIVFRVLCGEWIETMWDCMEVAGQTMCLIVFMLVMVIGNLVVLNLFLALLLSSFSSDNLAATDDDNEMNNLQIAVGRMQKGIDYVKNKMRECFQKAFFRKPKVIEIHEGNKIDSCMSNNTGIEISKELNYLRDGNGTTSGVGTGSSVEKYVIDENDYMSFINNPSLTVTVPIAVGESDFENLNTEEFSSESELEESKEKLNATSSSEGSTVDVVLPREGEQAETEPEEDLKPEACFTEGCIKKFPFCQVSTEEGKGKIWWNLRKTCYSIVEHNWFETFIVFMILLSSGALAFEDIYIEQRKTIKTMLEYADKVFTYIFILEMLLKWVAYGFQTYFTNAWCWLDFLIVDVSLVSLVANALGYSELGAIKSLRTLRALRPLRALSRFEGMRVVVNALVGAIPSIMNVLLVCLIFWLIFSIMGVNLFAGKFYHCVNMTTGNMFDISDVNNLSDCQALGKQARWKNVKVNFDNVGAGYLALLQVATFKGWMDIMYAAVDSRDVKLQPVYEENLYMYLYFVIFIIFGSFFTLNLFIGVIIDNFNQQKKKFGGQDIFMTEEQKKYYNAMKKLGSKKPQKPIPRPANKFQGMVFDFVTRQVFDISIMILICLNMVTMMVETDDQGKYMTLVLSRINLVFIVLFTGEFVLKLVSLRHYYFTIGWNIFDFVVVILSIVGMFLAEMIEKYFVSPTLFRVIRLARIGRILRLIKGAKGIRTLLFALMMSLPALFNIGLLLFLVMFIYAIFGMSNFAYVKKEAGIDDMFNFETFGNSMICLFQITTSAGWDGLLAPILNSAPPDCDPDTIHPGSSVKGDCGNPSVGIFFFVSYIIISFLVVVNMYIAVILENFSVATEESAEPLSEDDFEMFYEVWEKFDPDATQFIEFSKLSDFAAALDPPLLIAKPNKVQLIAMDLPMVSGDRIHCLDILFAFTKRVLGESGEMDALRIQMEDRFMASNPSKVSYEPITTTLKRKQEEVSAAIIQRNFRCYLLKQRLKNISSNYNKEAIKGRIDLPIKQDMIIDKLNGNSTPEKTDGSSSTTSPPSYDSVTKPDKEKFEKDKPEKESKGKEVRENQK

NaV1.9 = NaV1.9 (Homo sapiens, UniProt Q9UI33); conditions: read-out: TTX IC50; cited from earlier work
NaV1.2 = NaV1.2 (Homo sapiens, UniProt Q99250); conditions: read-out: TTX IC50; cited from earlier work
NaV1.6 = NaV1.6 (Homo sapiens, UniProt Q9UQD0); conditions: read-out: TTX IC50; cited from earlier work
NaV1.1 = NaV1.1 (Homo sapiens, UniProt P35498); conditions: read-out: TTX IC50; cited from earlier work
NaV1.8 [3] = target: T1, NaV1.8; experiment: Optical membrane potential assay, NaV 1.8 inhibition; assay type: cell-based; conditions: activity against NaV 1.8 channel
Protocol: as §1, §2, §3, §4, §5, §6, §7, §8
Target sequence in this assay (Q9Y5Y9 whole entry): as the sequence (Q9Y5Y9 whole entry, looked up) above

NaV1.3 [4] = target: T2, NaV1.3; experiment: VIPR optical membrane potential assay, NaV 1.3 inhibition; assay type: cell-based; parameters: expressed in transfected cells; host or cells: HEK293; conditions: activity against NaV 1.3 channel
Protocol: as §1, §2, §3
Target sequence in this assay (Q9NY46 whole entry): as the sequence (Q9NY46 whole entry, looked up) above
HEK293 cells stably expressing NaV1.3 are plated into 96-well microtiter plates. After an appropriate incubation period, the cells are stained with the voltage sensitive dyes CC2-DMPE/DiSBAC2(3) as follows.
Reagents: • 100 mg/mL Pluronic F-127 (Sigma #P2443), in dry DMSO • 10 mM DiSBAC2(3) (Aurora #00-100-010) in dry DMSO • 10 mM CC2-DMPE (Aurora #00-100-008) in dry DMSO • 200 mM ABSC1 in H2O • Hank's Balanced Salt Solution (Hyclone #SH30268.02) supplemented with 10 mM HEPES (Gibco #15630-080)
2×CC2-DMPE=20 μM CC2-DMPE: 10 mM CC2-DMPE is vortexed with an equivalent volume of 10% pluronic, followed by vortexing in required amount of HBSS containing 10 mM HEPES. Each cell plate will require 5 mL of 2×CC2-DMPE. 50 μL of 2×CC2-DMPE is to wells containing washed cells, resulting in a 10 μM final staining concentration. The cells are stained for 30 minutes in the dark at RT.
2×DISBAC2(3) with ABSC1=6 μM DISBAC2(3) and 1 mM ABSC1: The required amount of 10 mM DISBAC2(3) is added to a 50 ml conical tube and mixed with 1 μL 10% pluronic for each mL of solution to be made and vortexed together. Then HBSS/HEPES is added to make up 2× solution. Finally, the ABSC1 is added.
The 2× DiSBAC2(3) solution can be used to solvate compound plates. Note that compound plates are made at 2× drug concentration. Wash stained plate again, leaving residual volume of 50 μL. Add 50 uL/well of the 2× DiSBAC2(3) w/ABSC1. Stain for 30 minutes in the dark at RT.
as §4, with “plate. […]” for “plate.”

COc1cccc(-c2cc(C(=O)Nc3cccc(S(N)(=O)=O)c3)no2)c1 [Compound 32]
IC50 (NaV 1.7 channel): > 20 µM

NC1=N[C@H](O)[C@H]2[C@H]3O[C@]4(O)O[C@@H]([C@@H](O)[C@@]2(N1)[C@@H]4O)[C@]3(O)CO [TTX, tetrodotoxin]
IC50 (NaV1.8 [1]): > 50 µM
IC50 (NaV1.3 [2]): 0.015 µM
IC50 (NaV1.9): 1 µM
IC50 (NaV1.2): 0.01 µM
IC50 (NaV1.6): 0.006 µM
IC50 (NaV1.1): 0.01 µM

CCN(CC)Cc1oc(-c2ccccc2)cc1C(=O)Nc1cccc(S(N)(=O)=O)c1 [Compound 9]
IC50 (NaV 1.7 channel): 2 to 10 µM
IC50 (NaV1.8 [3]): 2 to 10 µM
IC50 (NaV1.3 [4]): 2 to 10 µM

Cc1nc(C(C)(C)C)sc1C(=O)Nc1cccc(S(N)(=O)=O)c1 [Compound 24]
IC50 (NaV 1.7 channel): > 20 µM
IC50 (NaV1.3 [4]): > 20 µM

NS(=O)(=O)c1cc(NC(=O)c2cc(-c3cccc(Cl)c3)oc2C(F)(F)F)ccc1Cl [Compound 20]
IC50 (NaV1.3 [4]): > 20 µM

NS(=O)(=O)c1cccc(NC(=O)c2cc(-c3ccccc3)on2)c1 [Compound 30]
IC50 (NaV 1.7 channel): 10 to 20 µM

CC(C)(C)c1nc(C(=O)Nc2cccc(S(N)(=O)=O)c2)n(Cc2ccccc2)n1 [Compound 26, 5-tert-Butyl-2-benzyl-N-(3-(aminosulfonyl)phenyl)-2H-1,2,4-triazole-3-carboxamide]
IC50 (NaV1.8 [3]): 10 to 20 µM
IC50 (NaV1.3 [4]): > 20 µM

Cc1oc(C(C)(C)C)c(CO)c1C(=O)Nc1cccc(S(N)(=O)=O)c1 [Compound 13]
IC50 (NaV 1.7 channel): 10 to 20 µM
IC50 (NaV1.8 [3]): < 2 µM
IC50 (NaV1.3 [4]): 10 to 20 µM

CC(C)(C)c1ccc(C(=O)Nc2cccc(S(N)(=O)=O)c2)cn1 [Compound 22, 6-tert-Butyl-N-(3-(aminosulfonyl)phenyl)pyridine-3-carboxamide]
IC50 (NaV 1.7 channel): > 20 µM
IC50 (NaV1.8 [3]): 10 to 20 µM
IC50 (NaV1.3 [4]): > 20 µM

Cc1oc(C(C)(C)C)c(CN2CCOCC2)c1C(=O)Nc1cccc(S(N)(=O)=O)c1 [Compound 8]
IC50 (NaV 1.7 channel): 10 to 20 µM
IC50 (NaV1.8 [3]): > 20 µM
IC50 (NaV1.3 [4]): > 20 µM

Cc1oc(CC(C)C)c(CN2CCOCC2)c1C(=O)Nc1cccc(S(N)(=O)=O)c1 [Compound 7]
IC50 (NaV 1.7 channel): 2 to 10 µM
IC50 (NaV1.8 [3]): 10 to 20 µM
IC50 (NaV1.3 [4]): > 20 µM

Cc1oc(C(C)(C)C)cc1C(=O)Nc1cccc(S(N)(=O)=O)c1 [Compound 3]
IC50 (NaV 1.7 channel): 10 to 20 µM
IC50 (NaV1.8 [3]): < 2 µM
IC50 (NaV1.3 [4]): > 20 µM

Cc1coc(C)c1C(=O)Nc1cccc(S(N)(=O)=O)c1 [Compound 14]
IC50 (NaV 1.7 channel): > 20 µM
IC50 (NaV1.8 [3]): > 20 µM
IC50 (NaV1.3 [4]): > 20 µM

NS(=O)(=O)c1cccc(NC(=O)c2cc(-c3ccc(Cl)cc3)cs2)c1 [Compound 19]
IC50 (NaV1.3 [4]): 10 to 20 µM

CC(C)(C)c1nnc(C(=O)Nc2cccc(S(N)(=O)=O)c2)s1 [Compound 23, 5-tert-Butyl-N-(3-sulfamoylphenyl)-1,3,4-thiadiazole-2-carboxamide]
IC50 (NaV 1.7 channel): > 20 µM
IC50 (NaV1.8 [3]): > 20 µM
IC50 (NaV1.3 [4]): > 20 µM

Cc1oc(C(C)(C)C)nc1C(=O)Nc1cccc(S(N)(=O)=O)c1 [Compound 25]
IC50 (NaV 1.7 channel): 10 to 20 µM
IC50 (NaV1.8 [3]): 10 to 20 µM
IC50 (NaV1.3 [4]): > 20 µM

Cc1oc(C(C)(C)C)cc1C(=O)Nc1cccc(S(N)(=O)=O)c1 [Compound 18]
IC50 (NaV 1.7 channel): 10 to 20 µM
IC50 (NaV1.8 [3]): < 2 µM
IC50 (NaV1.3 [4]): 10 to 20 µM

NS(=O)(=O)c1cccc(NC(=O)c2ccc(-c3cccc(C(F)(F)F)c3)o2)c1 [Compound 29]
IC50 (NaV 1.7 channel): 10 to 20 µM
IC50 (NaV1.3 [4]): 2 to 10 µM

Cn1nc(C(C)(C)C)nc1C(=O)Nc1cccc(S(N)(=O)=O)c1 [Compound 27]
IC50 (NaV1.3 [4]): > 20 µM

CC(C)(C)c1cc(C(=O)Nc2cccc(S(N)(=O)=O)c2)c(CN2CCCCC2)o1 [Compound 6]
IC50 (NaV1.8 [3]): 2 to 10 µM
IC50 (NaV1.3 [4]): > 20 µM

Cc1oc(CC(C)C)c(CN2CCCCC2)c1C(=O)Nc1cccc(S(N)(=O)=O)c1 [Compound 12]
IC50 (NaV 1.7 channel): 2 to 10 µM
IC50 (NaV1.8 [3]): 2 to 10 µM
IC50 (NaV1.3 [4]): 10 to 20 µM

Cc1oc(CC(C)C)c(CN2CCCC2)c1C(=O)Nc1cccc(S(N)(=O)=O)c1 [Compound 11]
IC50 (NaV 1.7 channel): 2 to 10 µM
IC50 (NaV1.8 [3]): 10 to 20 µM
IC50 (NaV1.3 [4]): 10 to 20 µM

C[C@@H](c1ccc(F)cc1)N1CCN(Cc2oc(C(C)(C)C)cc2C(=O)Nc2cccc(S(N)(=O)=O)c2)CC1 [Compound 5]
IC50 (NaV1.3 [4]): 10 to 20 µM

NS(=O)(=O)c1cccc(NC(=O)c2cccnc2Oc2ccc(Cl)cc2)c1 [Compound 21]
IC50 (NaV1.8 [3]): > 20 µM
IC50 (NaV1.3 [4]): > 20 µM

COc1ccc(-c2cc(C(=O)Nc3cccc(S(N)(=O)=O)c3)on2)cc1 [Compound 31]
IC50 (NaV 1.7 channel): > 20 µM

Cc1ccc(OCc2occc2C(=O)Nc2cccc(S(N)(=O)=O)c2)cc1 [Compound 10]
IC50 (NaV 1.7 channel): > 20 µM
IC50 (NaV1.3 [4]): > 20 µM
